{"source": "patent US20150174160A1", "about": "“METHODS FOR TREATING, DIAGNOSING AND/OR MONITORING PROGRESSION OF OXO ASSOCIATED STATES” (priority 2012, published 2015)", "origin": "cited, not measured here", "settings": "for 2 years in humans"}
{"smiles": "O=C(O)CCCCC1CCSS1", "note": "(stereo not drawn) [ALA, alpha-lipoic acid]", "values": [{"measurement": "safe dose", "result": "up to 2 grams daily"}]}
